# Test results published in paper PMC11589570, “Critical assessment of LC3/GABARAP ligands used for degrader development and ligandability of LC3/GABARAP binding pockets” (Nature Communications, 2024).
# Like-named read-outs stand apart in the source and are kept apart here.
# Target: GABARAPL2 (Homo sapiens, UniProt P60520)
# Conditions: GABARAPL2:ligand molar ratio 1:2
# Chain of GABARAPL2 (P60520 whole entry): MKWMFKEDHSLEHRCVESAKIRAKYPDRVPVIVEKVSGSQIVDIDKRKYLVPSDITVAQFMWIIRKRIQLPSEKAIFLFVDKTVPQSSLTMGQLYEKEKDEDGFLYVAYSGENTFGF
smiles,measurement,setting,value
O=c1cc(-c2ccccc2)c2c(O)cc(O)cc2o1 [compound 2],CSP,residue A19,0.010 ppm
same,CSP,residue A23,0.008 ppm
same,CSP,residue A58,0.00237 ppm
same,CSP,residue A108,0.00221 ppm
same,CSP,residue C15,0.005 ppm
same,CSP,residue D45,0.004 ppm
same,CSP,residue D54,0.006 ppm
same,CSP,residue D81,0.00283 ppm
same,CSP,residue D100,0.00367 ppm
same,CSP,residue D102,0.009 ppm
same,CSP,residue E12,0.00212 ppm
same,CSP,residue E17,0.006 ppm
same,CSP,residue E34,0.010 ppm
same,CSP,residue E73,0.00212 ppm
same,CSP,residue E96,0.004 ppm
same,CSP,residue E112,0.002 ppm
same,CSP,"residue F5, estimated",0.005 ppm
same,CSP,residue F60,0.005 ppm
same,CSP,residue F77,0.00281 ppm
same,CSP,residue F104,0.016 ppm
same,CSP,residue F115,0.009 ppm
same,CSP,residue G38,0.012 ppm
same,CSP,residue G103,0.005 ppm
same,CSP,residue G111,0.008 ppm
same,CSP,residue H9,0.016 ppm
same,CSP,residue I21,0.005 ppm
same,CSP,residue I32,0.005 ppm
same,CSP,residue I41,0.007 ppm
same,CSP,residue I44,0.002 ppm
same,CSP,residue I55,0.00171 ppm
same,CSP,residue I63,0.003 ppm
same,CSP,residue I64,0.006 ppm
same,CSP,residue K2,0.005 ppm
same,CSP,residue K20,0.009 ppm
same,CSP,residue K24,0.005 ppm
same,CSP,residue K35,0.007 ppm
same,CSP,"residue K46, estimated",0.005 ppm
same,CSP,residue K48,0.007 ppm
same,CSP,residue K66,0.00316 ppm
same,CSP,residue K74,0.00148 ppm
same,CSP,"residue K82, estimated",0.005 ppm
same,CSP,residue K99,0.00444 ppm
same,CSP,residue L11,0.00212 ppm
same,CSP,residue L50,0.031 ppm
same,CSP,residue L70,0.00283 ppm
same,CSP,residue L78,0.0017 ppm
same,CSP,residue L94,0.007 ppm
same,CSP,residue L105,0.00636 ppm
same,CSP,residue M1,0.014 ppm
same,CSP,"residue M4, estimated",0.005 ppm
same,CSP,residue M61,0.00474 ppm
same,CSP,residue M91,0.005 ppm
same,CSP,"residue P26, estimated",0.005 ppm
same,CSP,"residue P30, estimated",0.010 ppm
same,CSP,"residue P52, estimated",0.005 ppm
same,CSP,"residue P71, estimated",0.005 ppm
same,CSP,"residue P85, estimated",0.005 ppm
same,CSP,residue Q40,0.0017 ppm
same,CSP,residue Q59,0.002 ppm
same,CSP,residue R14,0.0095 ppm
same,CSP,residue R28,0.00851 ppm
same,CSP,"residue R47, estimated",0.005 ppm
same,CSP,residue R65,0.0019 ppm
same,CSP,residue R67,0.004 ppm
same,CSP,residue S10,0.013 ppm
same,CSP,residue S18,0.002 ppm
same,CSP,residue S37,0.0065 ppm
same,CSP,residue S39,0.00356 ppm
same,CSP,residue S53,0.005 ppm
same,CSP,residue S88,0.00122 ppm
same,CSP,residue S110,0.00122 ppm
same,CSP,residue T83,0.00251 ppm
same,CSP,residue T114,0.00122 ppm
same,CSP,residue V29,0.0057 ppm
same,CSP,residue V31,0.025 ppm
same,CSP,residue V36,0.00316 ppm
same,CSP,residue V42,0.006 ppm
same,CSP,residue V51,0.009 ppm
same,CSP,residue V80,0.008 ppm
same,CSP,residue V84,0.00228 ppm
same,CSP,residue V107,0.006 ppm
same,CSP,residue W3,0.006 ppm
same,CSP,residue Y49,0.033 ppm
same,CSP,residue Y95,0.0022 ppm
same,CSP,residue Y106,0.007 ppm
same,CSP,residue Y109,0.007 ppm
